Literature values in patent publication US7575866B2, “Ligand/binding partner bio-labeling systems” (priority 2003, dated 2009).

Tests used:
Mycobacterium avium DHFR = target: T1, Mycobacterium avium DHFR (Mycobacterium avium, UniProt O30463)
T1 sequence (O30463 1-181): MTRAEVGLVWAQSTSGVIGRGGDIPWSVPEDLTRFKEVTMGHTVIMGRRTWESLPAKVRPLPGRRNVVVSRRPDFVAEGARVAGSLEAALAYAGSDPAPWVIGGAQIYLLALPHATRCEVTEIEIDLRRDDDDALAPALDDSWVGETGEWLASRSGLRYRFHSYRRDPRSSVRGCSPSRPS

CCCCc1c(CN(C)c2ccc(C(=O)N[C@@H](CCC(=O)O)C(=O)O)cc2)cnc2nc(N)nc(N)c12 [5-butyl-5-deazamethotrexate]
inhibitory effect on DHFR lowered relative to MTX (DHFR): 17 fold

CN(Cc1cnc2nc(N)nc(N)c2n1)c1ccc(C(=O)N[C@@H](CCC(=O)O)C(=O)O)cc1 [MTX, Methotrexate]
extracellular concentration at which DNA damage has been observed (human cells): 10 µM
concentration at which toxicity observed (human leukocytes): 2000 nM

2,4-diamino-5-[(2-methoxy-4-carboxybutyloxy)benzyl]pyrimidine
selective binding to Mycobacterium avium DHFR (Mycobacterium avium DHFR): selectively bind
